Data published in the supplement of paper PMC8671470.

Key:
Conditions in all cases: 72 h
KCL-22 = experiment: cell viability (% survival relative to DMSO control, bortezomib = 0%); higher = less cytotoxic
Method in brief: (§1)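 Fifteen myeloid leukaemia cell lines (10 AML, 5 CML) were seeded at a density titrated to the linear growth range into 384-well plates pre-printed with compounds at 1, 10, 100, 1000 or 10000 nM in duplicate. Plates were incubated for 72 h at 37 °C with 5% CO2. Viability was then read by CellTiter-Glo luminescence. Each value is percent survival averaged over the duplicates, with vehicle set to 100% and a 10 µM positive control to 0%.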

MV4-11 [1] = experiment: as above
Method in brief: as §1

BV-173 = experiment: as above
Method in brief: as §1

SHI-1 = experiment: as above
Method in brief: as §1

HL-60 [2] = experiment: as above
Method in brief: as §1

KG-1 = experiment: as above
Method in brief: as §1

NOMO-1 [3] = experiment: as above
Method in brief: as §1

LAMA-84 = experiment: as above
Method in brief: as §1

Mono-Mac-6 [4] = experiment: as above
Method in brief: as §1

THP-1 = experiment: as above
Method in brief: as §1

K-562 [5] = experiment: as above
Method in brief: as §1

HEL = experiment: as above
Method in brief: as §1

KU-812 [6] = experiment: as above
Method in brief: as §1

MOLM-13 = experiment: as above
Method in brief: as §1

ML-2 = experiment: as above
Method in brief: as §1

HL-60 [7] = experiment: cell viability (% survival relative to DMSO control); higher = less cytotoxic
Method in brief: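 For each screen, HL-60 cells in RPMI 1640 with 10% FBS carried either DMSO or 100 nM of one of three metabolic inhibitors while the full library was applied at five tenfold concentrations, 1–10,000 nM, in duplicate. Plates were 384-well and were kept 72 h at 37 °C, 5% CO2. Viability, measured by CellTiter-Glo, was normalised to wells with DMSO and with 10 μM proteasome inhibitor. Where area under the curve appears, it was fitted by four-parameter log-logistic models in drc and PharmacoGx.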

MV4-11 [8] = system: MV4-11
Method in brief: (§2)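 Seeded in RPMI 1640 at densities within the linear growth range, fifteen myeloid leukaemia cell lines were dispensed into 384-well plates with acoustically pre-printed compounds spanning five tenfold doses from 1 to 10,000 nM, in duplicate. The plates were kept for 72 h at 37 °C in 5% CO2 before luminescent ATP viability was measured and normalised to vehicle and to a positive control at 10 µM. Curves were fitted with a four-parameter log-logistic model. The IC50 was taken from those curves.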

NOMO-1 [9] = system: NOMO-1
Method in brief: as §2

Mono-Mac-6 [10] = system: Mono-Mac-6
Method in brief: as §2

K-562 [11] = system: K-562
Method in brief: as §2

KU-812 [12] = system: KU-812
Method in brief: as §2

Cc1nc(-c2ccccc2)sc1C(=O)Nc1ccc(S(N)(=O)=O)cc1
cell viability [%]
Conditions	1 nM	10 nM	100 nM	1000 nM	10000 nM
BV-173	115	103	85.1	97.8	109
HEL	110	112	106	89.3	105
HL-60 [2]	109	85	117	103	97.2
K-562 [5]	103	109	105	114	109
KCL-22	98.7	99.1	105	79.8	102
KG-1	118	104	98.5	93.3	102
KU-812 [6]	108	102	96.4	91	104
LAMA-84	107	99.9	102	96.2	111
ML-2	111	104	99.8	107	100
MOLM-13	102	112	127	106	99.7
MV4-11 [1]	106	112	105	105	93.8
Mono-Mac-6 [4]	121	102	98.7	97.3	108
NOMO-1 [3]	113	98.2	96.6	101	99.6
SHI-1	109	106	104	103	111
THP-1	107	103	97	94.7	97.7

cell viability [%], HL-60 [7]
Conditions	0.001 µM	0.01 µM	0.1 µM	1 µM	10 µM
co-treatment: AZD3965 100 nM	101	109	96	94.8	99.97
co-treatment: DMSO vehicle	103	109	100.3	97.5	98.6
co-treatment: GSK2194069 100 nM	99.3	104	85.9	91.2	96.25
co-treatment: pictilisib 100 nM	101	97.6	92	97.9	99.5

Conditions	IC50 (cell viability) [µM]
K-562 [11]	> 10
KU-812 [12]	> 10
MV4-11 [8]	> 10
Mono-Mac-6 [10]	> 10
NOMO-1 [9]	> 10

Cc1ccc(-c2cc(C(F)(F)F)nn2-c2ccc(S(N)(=O)=O)cc2)cc1 [Celecoxib]
cell viability [%]
Conditions	1 nM	10 nM	100 nM	1000 nM	10000 nM
BV-173	104	93.2	86.4	84.9	83.2
HEL	96.1	104	89.9	99.5	97.1
HL-60 [2]	99.2	103	84.5	188	124
K-562 [5]	96.3	86.6	85.6	95.4	78.4
KCL-22	101	76.4	90.7	76.9	80
KG-1	96.8	102	97.4	110	93.8
KU-812 [6]	92.4	91.9	95.6	90.6	62.8
LAMA-84	98.6	106	94	93.7	79.6
ML-2	93.5	99.2	105	87.4	76.8
MOLM-13	81.3	85.7	85.4	139	92.5
MV4-11 [1]	97.5	96.4	83.7	110	79.4
Mono-Mac-6 [4]	104	101	105	104	75.3
NOMO-1 [3]	101	109	94.8	99.4	95.5
SHI-1	118	104	95.6	112	94.2
THP-1	105	102	105	95.5	84.7

cell viability [%], HL-60 [7]
Conditions	0.001 µM	0.01 µM	0.1 µM	1 µM	10 µM
co-treatment: AZD3965 100 nM	104	99.7	101	106	114.8
co-treatment: DMSO vehicle	103	90.4	100	105	110.57
co-treatment: GSK2194069 100 nM	101	87.7	97.67	103	104
co-treatment: pictilisib 100 nM	102	98.6	96.2	122	125

Conditions	IC50 (cell viability) [µM]
K-562 [11]	> 10
KU-812 [12]	> 10
MV4-11 [8]	> 10
Mono-Mac-6 [10]	> 10
NOMO-1 [9]	> 10

CCn1c(=Cc2cccc[n+]2CC)sc(=C2Sc3ccccc3N2C)c1=O [MKT 077]
cell viability [%]
Conditions	1 nM	10 nM	100 nM	1000 nM	10000 nM
BV-173	107	108	102	95.2	83.4
HEL	117	87	95.7	105	125
HL-60 [2]	101	84.5	101	136	2.97
K-562 [5]	109	88.1	103	108	1.35
KCL-22	106	98.5	90	103	107
KG-1	99	103	138	102	79.3
KU-812 [6]	101	103	107	98.3	61.8
LAMA-84	105	94.7	114	104	71.6
ML-2	91.7	98	106	102	101
MOLM-13	115	108	119	115	0.148
MV4-11 [1]	113	99.9	109	104	0.22
Mono-Mac-6 [4]	100	110	112	102	87.8
NOMO-1 [3]	98	96.2	98.1	94	95.2
SHI-1	95.9	98.7	97.3	98.8	2.85
THP-1	99.6	105	108	98.2	86.1

cell viability [%], HL-60 [7]
Conditions	0.001 µM	0.01 µM	0.1 µM	1 µM	10 µM
co-treatment: AZD3965 100 nM	95.2	102	97.3	88.22	97.7
co-treatment: DMSO vehicle	102	105	97.35	100.14	106
co-treatment: GSK2194069 100 nM	92	104	96	76.1	73.5
co-treatment: pictilisib 100 nM	95.6	113.3	99.2	93.3	110

Conditions	IC50 (cell viability) [µM]
K-562 [11]	3.59
KU-812 [12]	> 10
MV4-11 [8]	3.37
Mono-Mac-6 [10]	> 10
NOMO-1 [9]	> 10

CN1CCN(CCCN2c3ccccc3Sc3ccc(C(F)(F)F)cc32)CC1 [Trifluoperazine]
cell viability [%]
Conditions	1 nM	10 nM	100 nM	1000 nM	10000 nM
BV-173	97.3	94.8	103	97.6	55.3
HEL	110	82.7	99.9	86.5	65.1
HL-60 [2]	100	101	88.6	95.3	20.2
K-562 [5]	113	89.5	85.1	92	0.986
KCL-22	108	109	115	78.1	42.1
KG-1	106	103	100	79.8	42.8
KU-812 [6]	101	94	97.8	86.3	65.6
LAMA-84	101	100	98.8	83	76.5
ML-2	102	102	103	95.9	48.4
MOLM-13	105	85.4	101	93.2	57.7
MV4-11 [1]	99.5	79.6	93.8	89.9	50.3
Mono-Mac-6 [4]	108	112	90.4	83.2	66.6
NOMO-1 [3]	104	108	101	88.3	81
SHI-1	113	96.2	103	92.1	64.4
THP-1	97.9	102	100	87.6	72.4

cell viability [%], HL-60 [7]
Conditions	0.001 µM	0.01 µM	0.1 µM	1 µM	10 µM
co-treatment: AZD3965 100 nM	101	100	97.8	101	81.7
co-treatment: DMSO vehicle	101.2	103	102	102	90.6
co-treatment: GSK2194069 100 nM	94	101	96	101	70.4
co-treatment: pictilisib 100 nM	97	95.9	108	97.2	47.7

Conditions	IC50 (cell viability) [µM]
K-562 [11]	2.91
KU-812 [12]	> 10
MV4-11 [8]	9.52
Mono-Mac-6 [10]	> 10
NOMO-1 [9]	> 10

CN(CCCOc1ccc(Cc2ccccc2)cc1)CCC(=O)O
cell viability [%]
Conditions	1 nM	10 nM	100 nM	1000 nM	10000 nM
BV-173	96.8	98.4	100	99.4	95.8
HEL	107	113	102	129	110
HL-60 [2]	99.9	102	120	191	115
K-562 [5]	103	107	98.1	112	104
KCL-22	106	103	94.8	116	110
KG-1	94.1	110	104	108	92.6
KU-812 [6]	99.9	105	90.9	106	94.2
LAMA-84	110	119	95	98.2	91.9
ML-2	105	97	103	113	107
MOLM-13	119	122	91.9	133	79.1
MV4-11 [1]	99.1	97.6	96	125	87.8
Mono-Mac-6 [4]	106	90.1	101	107	89
NOMO-1 [3]	106	107	95.1	106	101
SHI-1	106	102	116	115	110
THP-1	104	103	96.1	98.4	102

cell viability [%], HL-60 [7]
Conditions	0.001 µM	0.01 µM	0.1 µM	1 µM	10 µM
co-treatment: AZD3965 100 nM	98	101	112	99.6	99.54
co-treatment: DMSO vehicle	106	100	104	100	98.6
co-treatment: GSK2194069 100 nM	102.15	102	105.1	103	101
co-treatment: pictilisib 100 nM	98.7	110	114	97.8	93.3

Conditions	IC50 (cell viability) [µM]
K-562 [11]	> 10
KU-812 [12]	> 10
MV4-11 [8]	> 10
Mono-Mac-6 [10]	> 10
NOMO-1 [9]	> 10
